Measured values published in patent US20240246946A1, “MODULATORS OF TREX1” (Constellation Pharmaceuticals, Inc., priority 2021, published 2024).

How the values were obtained:
full length mouse TREX1 = biological target: T1, full length mouse TREX1 (Mus musculus, UniProt Q91XB0); assay: mTREX1 Biochemical Assay (fluorescence, dsDNA substrate degradation); settings: biochemical, read-out: mTREX1 IC50
T1 construct: N-terminally His-Tev tagged full length mouse TREX1; made in house; host or cells: E. coli
T1 sequence (Q91XB0 1-314): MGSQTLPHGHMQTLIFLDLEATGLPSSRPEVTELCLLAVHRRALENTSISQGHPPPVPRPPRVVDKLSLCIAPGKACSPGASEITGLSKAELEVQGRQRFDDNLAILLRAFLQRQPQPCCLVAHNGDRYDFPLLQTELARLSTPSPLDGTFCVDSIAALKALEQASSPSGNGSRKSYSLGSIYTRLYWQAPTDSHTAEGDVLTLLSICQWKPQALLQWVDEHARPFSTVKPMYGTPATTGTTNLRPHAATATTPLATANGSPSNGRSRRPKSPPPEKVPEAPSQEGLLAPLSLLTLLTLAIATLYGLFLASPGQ
In short: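 Reaction run 18 h at 25° C. with 60 nM TEX615/quencher-labelled dsDNA and 6 pM mouse TREX1 in Tris buffer (pH 7.4, 5 mM MgCl2, 1.0% DMSO), enzyme having sat 4 h with compound across 10 concentrations. EDTA quench; substrate degradation measured as fluorescence increase.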

full length human TREX1 = biological target: T2, full length human TREX1 (Homo sapiens, UniProt Q9NSU2); assay: hTREX1 Biochemical Assay (fluorescence, dsDNA substrate degradation); settings: biochemical, read-out: hTREX1 IC50
T2 construct: N-terminally His-Tev tagged full length human TREX1; made in house; host or cells: E. coli
T2 sequence (Q9NSU2 1-314): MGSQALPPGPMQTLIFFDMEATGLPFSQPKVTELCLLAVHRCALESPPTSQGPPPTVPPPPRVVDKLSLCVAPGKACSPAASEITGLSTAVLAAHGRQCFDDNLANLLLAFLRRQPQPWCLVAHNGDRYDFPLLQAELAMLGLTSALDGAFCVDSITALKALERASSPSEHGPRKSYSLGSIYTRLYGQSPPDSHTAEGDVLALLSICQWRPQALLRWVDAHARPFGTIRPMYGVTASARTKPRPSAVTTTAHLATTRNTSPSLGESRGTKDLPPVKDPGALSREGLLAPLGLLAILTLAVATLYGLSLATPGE
In short: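 Fluorescence rises as enzyme degrades a quenched TEX615-labelled dsDNA substrate (60 nM) in 50 mM Tris, 150 mM NaCl, 5 mM MgCl2, pH 7.4. Full-length His-Tev-tagged human TREX1, 4 pM, sits with compound 4 hours at 25° C before substrate; reaction 18 hours, stopped with EDTA.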

[1] = biological target: T3, human TREX2 (residues M44-A279) (Homo sapiens, UniProt Q9BQ50); assay: hTREX2 Biochemical Assay (fluorescence, dsDNA substrate degradation); settings: biochemical selectivity for hTREX1 vs hTREX2
T3 construct: human TREX2 (residues M44-A279, expressed in E. coli); made in house; host or cells: E. coli
T3 sequence (Q9BQ50 44-279 isoform Q9BQ50-1): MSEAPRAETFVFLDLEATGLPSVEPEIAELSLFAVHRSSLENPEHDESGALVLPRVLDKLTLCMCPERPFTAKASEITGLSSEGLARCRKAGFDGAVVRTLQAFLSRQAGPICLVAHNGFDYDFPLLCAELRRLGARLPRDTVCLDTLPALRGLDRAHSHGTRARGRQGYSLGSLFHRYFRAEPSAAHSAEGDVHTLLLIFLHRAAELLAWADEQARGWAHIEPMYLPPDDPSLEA
Method: Degradation of the dsDNA liberates free fluorophore to produce a fluorescent signal. Specifically, 7.5 μL of N-terminally His-Tev tagged human TREX2 (residues M44-A279, expressed in E. coli and purified in house) in reaction buffer (50 mM Tris, 150 mM NaCl, 2 mM DTT, 0.1 mg/mL BSA, 0.01% (w/v) Tween-20, 5 mM MgCl2, pH 7.4) was added to a 384-well Black ProxiPlate Plus (PerkinElmer) which already contained compound (150 nL) at varying concentrations as a 10 point dose-response in DMSO. The plate was incubated at 25° C. for 4 hours. Reactions were initiated by adding 7.5 μL of dsDNA substrate (Strand A: 5′ TEX615/GCT AGG CAG 3′; Strand B: 5′ CTG CCT AGC/IAbRQSp (IDT)) in reaction buffer. Final concentrations were 50 pM TREX2, 60 nM dsDNA substrate in reaction buffer with 1.0% DMSO (v/v). After 18 hours at 25° C., reactions were quenched by the addition of 2 μL of 500 mM EDTA. Final concentrations in the quenched reaction mixture were 44 pM TREX2, 53 nM DNA and 59 mM EDTA in a volume of 17 μL. After a 5-minute incubation at room temperature, plates were read in an EnVision plate reader (PerkinElmer) measuring fluorescence at 615 nm following excitation w/570 nm light.

SMILES | IC50 (full length mouse TREX1) | IC50 (full length human TREX1) | hTREX1 vs hTREX2 selectivity [1]
Cc1nn(C)cc1C(c1cc(F)ccc1C#N)C(c1nc(C(=O)Nc2cnoc2)c(O)c(=O)n1C)C(F)(F)F (single isomer, unassigned) [Example 42 D2E1] | > 10 nM | 1 to 10 nM | B (B = 25 to 50-fold selective for hTREX1)
CC(c1nc(C(=O)Nc2cnoc2)c(O)c(=O)n1C)C(c1cnn(CC(C)(C)O)c1)c1cc(F)ccc1Cl (single isomer, unassigned) [Example 92 D1E2] | > 10 nM | 1 to 10 nM | A (A = <25 fold selective for hTREX1)
CC(c1nc(C(=O)Nc2cnoc2)c(O)c(=O)n1C)C(c1ccccc1C#N)c1ccnn1C (single isomer, unassigned) [Example 1 D2E2] | > 10 nM | > 10 nM | B (B = 25 to 50-fold selective for hTREX1)
CC(c1nc(C(=O)Nc2cnoc2)c(O)c(=O)n1C)C(c1cnn(CC2COC2)c1)c1ccccc1Cl (single isomer, unassigned) [Example 88 D2E1] | > 10 nM | > 10 nM | A (A = <25 fold selective for hTREX1)
CC(c1nc(C(=O)Nc2cnoc2)c(O)c(=O)n1C)C(c1cnn(C)c1)c1ccc(C(=O)N(C)C)cc1C#N (single isomer, unassigned) [Example 11 D1E2] | > 10 nM | > 10 nM | B (B = 25 to 50-fold selective for hTREX1)
CCn1ncc(C(c2ccccc2C#N)C(C)c2nc(C(=O)Nc3cnoc3)c(O)c(=O)n2C)c1C (single isomer, unassigned) [Example 68 D2E1] | > 10 nM | < 1 nM | B (B = 25 to 50-fold selective for hTREX1)
CC(c1nc(C(=O)Nc2cnoc2)c(O)c(=O)n1C)C(c1cnn(CC(F)F)c1)c1cc(F)ccc1C#N (single isomer, unassigned) [Example 102 D1E1] | > 10 nM | > 10 nM | A (A = <25 fold selective for hTREX1)
CC(c1nc(C(=O)Nc2cnoc2)c(O)c(=O)n1C)C(c1cn[nH]c1)c1ccccc1C#N (single isomer, unassigned) [Example 12 D1E2] | > 10 nM | > 10 nM | B (B = 25 to 50-fold selective for hTREX1)
Cc1ncc(C(c2ccccc2C#N)C(C)c2nc(C(=O)Nc3cnoc3)c(O)c(=O)n2C)nc1C (single isomer, unassigned) [Example 81 D1E1] | > 10 nM | > 10 nM | A (A = <25 fold selective for hTREX1)
Cc1ncc(C(c2cc(F)ccc2C#N)C(C)c2nc(C(=O)Nc3cnoc3)c(O)c(=O)n2C)nc1C (single isomer, unassigned) [Example 124 D1E1] | > 10 nM | > 10 nM | A (A = <25 fold selective for hTREX1)
CCn1cc(C(c2ccc(F)cc2C#N)C(C)c2nc(C(=O)Nc3cnoc3)c(O)c(=O)n2C)c(C)n1 (single isomer, unassigned) [Example 55 D1E1] | < 1 nM | < 1 nM | C (C = >50 fold selective for hTREX1)
Cc1cnc(C)c(C(c2ccccc2Cl)C(C)c2nc(C(=O)Nc3cnoc3)c(O)c(=O)n2C)n1 (single isomer, unassigned) [Example 120 D1E2] | > 10 nM | > 10 nM | A (A = <25 fold selective for hTREX1)
Cc1cc(C)n(C(c2ccccc2C#N)C(C)c2nc(C(=O)Nc3cnoc3)c(O)c(=O)n2C)n1 (single isomer, unassigned) [Example 137 D1E2] | > 10 nM | > 10 nM | A (A = <25 fold selective for hTREX1)

Further lines, results first:

IC50 (full length mouse TREX1) | IC50 (full length human TREX1) | hTREX1 vs hTREX2 selectivity [1] | SMILES
> 10 nM | > 10 nM | A (A = <25 fold selective for hTREX1) | COCCn1cc(C(c2cc(F)ccc2C#N)C(C)c2nc(C(=O)Nc3cnoc3)c(O)c(=O)n2C)c(C)n1 (single isomer, unassigned) [Example 103 D2E2]
> 10 nM | > 10 nM | A (A = <25 fold selective for hTREX1) | CCc1cnn(C(c2ccccc2Cl)C(C)c2nc(C(=O)Nc3cnoc3)c(O)c(=O)n2C)c1 (single isomer, unassigned) [Example 134 D1E2]
< 1 nM | < 1 nM | C (C = >50 fold selective for hTREX1) | Cc1nn(C)cc1C(c1ccc(F)cc1C#N)C(C)c1nc(C(=O)Nc2cnoc2)c(O)c(=O)n1C (single isomer, unassigned) [Example 56 D1E1]
> 10 nM | 1 to 10 nM | C (C = >50 fold selective for hTREX1) | Cc1cc(C(c2ccccc2C#N)C(C)c2nc(C(=O)Nc3cnoc3)c(O)c(=O)n2C)n(C)n1 (single isomer, unassigned) [Example 63 D1E2]
> 10 nM | > 10 nM | A (A = <25 fold selective for hTREX1) | CC(c1nc(C(=O)Nc2cnoc2)c(O)c(=O)n1C)C(c1ccccc1Cl)c1cnn(C)c1C#N (single isomer, unassigned) [Example 96 D2E1]
> 10 nM | > 10 nM | A (A = <25 fold selective for hTREX1) | Cc1cnc(C(c2ccccc2C#N)C(C)c2nc(C(=O)Nc3cnoc3)c(O)c(=O)n2C)c(C)n1 (single isomer, unassigned) [Example 123 D2E2]
> 10 nM | > 10 nM | A (A = <25 fold selective for hTREX1) | CC(c1nc(C(=O)Nc2cnoc2)c(O)c(=O)n1C)C(c1cnn(CC(C)(C)O)c1)c1ccccc1Cl (single isomer, unassigned) [Example 86 D2E2]
> 10 nM | > 10 nM | A (A = <25 fold selective for hTREX1) | Cc1cnc(C(c2cc(F)ccc2Cl)C(C)c2nc(C(=O)Nc3cnoc3)c(O)c(=O)n2C)cn1 (single isomer, unassigned) [Example 117 D2E2]
> 10 nM | 1 to 10 nM | C (C = >50 fold selective for hTREX1) | CCn1ncc(C(c2ccc(F)cc2C#N)C(C)c2nc(C(=O)Nc3cnoc3)c(O)c(=O)n2C)c1C (single isomer, unassigned) [Example 65 D2E1]
> 10 nM | > 10 nM | A (A = <25 fold selective for hTREX1) | CCn1cc(C(c2ccccc2Cl)C(C)c2nc(C(=O)Nc3cnoc3)c(O)c(=O)n2C)cn1 (single isomer, unassigned) [Example 85 D2E2]
> 10 nM | > 10 nM | A (A = <25 fold selective for hTREX1) | Cc1cnn(C(c2ccccc2Cl)C(C)c2nc(C(=O)Nc3cnoc3)c(O)c(=O)n2C)c1 (single isomer, unassigned) [Example 133 D1E1]
> 10 nM | > 10 nM | A (A = <25 fold selective for hTREX1) | Cc1cnn(C(c2cc(F)ccc2Cl)C(C)c2nc(C(=O)Nc3cnoc3)c(O)c(=O)n2C)c1 (single isomer, unassigned) [Example 144 D1E1]
